From patent publication US4939177A, “Use of avarol for the control of AIDS and ARC” (Merz + Co. GmbH & Co., priority 1986, dated 1990)
Like-named read-outs stand apart in the source and are kept apart here.

Key:
[1] = tested on: human peripheral blood lymphocytes (IgM); test: In vitro IgM production by peripheral blood lymphocytes; format: cell-based
Experimental: (§1) Human peripheral blood lymphocytes (6×10^5 cells/ml) were cultured in the presence of 0 to 2 μg/ml of pokeweed mitogen (PWM; Sigma no. 9379) in Dulbeccos minimum essential medium, supplemented with 20% fetal calf serum, for 6 days. The assays were performed in a final volume of 200 μl in microtiter plates (Dynatech; M129B) (Muller et al., Eur. J. Cancer Clin. Oncol. 22: 473-476; 1986). Avarol in a concentration range of 0-3 μg/ml was added at time 0 or 3 days after starting the culture. The supernatants were harvested and assayed for human immunoglobulin content.
(§2) The culture supernatants were assayed by the enzyme-linked immunosorbent assay (Houtman et al., Clin. Exp. Immunol. 62: 696-704; 1985) using anti-human IgG (Dakopatts, Hamburg; P214) and anti-human IgM (Dakopatts; P215). These antibodies were conjugated to peroxidase. Bound enzyme activity was measured using 2,2'-azino-bis(3-ethylbenzthiazolinesulfonic acid) (Sigma no. A-1888) as substrate.

[2] = tested on: Arthus reaction in Sprague-Dawley rats; test: Antibody mediated hypersensitivity (modified active Arthus reaction, ovalbumin); format: in vivo, rat
IgM titer = test: Serum IgM titer of SRBC-immunized mice; format: in vivo, mouse; conditions: 30 mg/kg i.p.
Experimental: (§3) The plaque test of Jerne and Nordin (Science 140: 405-406, 1963) was used with the modification given by Cunningham and Szenberg (Immunolog. 14: 599-601; 1968). Briefly, 8 male NMRI mice per group (20-22 g) were immunized on day 0 by i.p. injection of 5×10^8 SRBC in 0.5 ml saline. Treatment with avarol was done i.p. either from day 0 to day +4 or from day -4 to day 0. One hour after the last drug administration, the animals were killed by a blow on the head and bled. The spleens were removed and a single cell suspension was prepared by teasing the pooled spleens through a 120-μm mesh sieve. After lysing the erythrocytes by 0.15M NH4 Cl, the cells were washed twice in Hank's balanced salt solution containing 29 ml of 7.5% NaHCO3 and 10 ml of 1M HEPES buffer solution per one liter. The cells were resuspended in 2 ml per spleen. Six Cunningham chambers per group were filled with a mixture of 0.5 ml of a suitable dilution of spleen cells (generally 1:100), 0.5 ml of a suspension of SRBC (10^9 /ml) and 125 μl of normal guinea pig complement. After 90-120 min of incubation at 37° C., the number of plaques was counted. Plaques per spleen or per 10^6 spleen cells were calculated.
(§4) The pooled blood of 8 mice was centrifuged to obtain the serum. IgM and IgG titers were measured with the mercaptoethanol method (Hudson, L. and Hay, F. C. Practical Immunology, Blackwell Sci., Oxford; 1983).

[3] = tested on: human peripheral blood lymphocytes (IgG); test: In vitro IgG production by peripheral blood lymphocytes; format: cell-based
Experimental: as §1, §2

[4] = Chemical nature and biological activity of radioactive product in rat blood (HPLC; L5178y system); format: in vivo; conditions: iv, after circulation in the body for 22 hours, read-out: modification to a biologically-inactive form
Experimental: These concentrations were determined on the basis of radioactivity. Moreover, the chemical nature of the radioactive product was identified by high-pressure liquid chromatography and found to consist of over 90% of Avarol. In addition, the biological activity of the compound in the blood was determined after extraction with ethyl acetate and estimated in the L5178y cell system in vitro (Muller, W.E.G. et al.; Comp. Biochem. Physiol. 80C, 47-52; 1985). Using this system, the biological activity of the compound, present in the blood, was determined and converted on a gram basis. Using this approach the concentration in the blood was only 5-15% lower than that determined on the basis of radioactivity.

male NMRI mice = conditions: cited from earlier work
[5] = tested on: plaque forming cells in the spleen of mice; test: Jerne plaque test, plaque forming cells in spleen of SRBC-immunized mice; format: in vivo, mouse; conditions: for Plaque forming cells per 10^6 cells: 30 mg/kg i.p.
Experimental: Concerning the functional consequences of the compound onto B-cells in vitro, I found (previous section) that both the IgG and the IgM secretion is stimulated in cultures of human lymphoid cells (unseparated) which are treated with non-cytostatic concentrations of avarol. This finding is supported by the results of the Jerne plaque test.
as §3

IgG titer = test: Serum IgG titer of SRBC-immunized mice; format: in vivo, mouse; conditions: 30 mg/kg i.p., untreated 4
Experimental: as §3, §4

HTLV-III p24 = format: cell-based; conditions: for Expression of p24 (in %): none = 100
[6] = 0.3 or 1 μg/ml, irrespective of PWM
[7] = avarol 0.3 μg/ml, PWM +, 0 to 6 days
[8] = avarol 0.3 μg/ml, PWM +, 3 to 6 days
[9] = avarol 0.3 μg/ml, PWM -, 0 to 6 days
[10] = avarol 0.3 μg/ml, PWM -, 3 to 6 days
[11] = avarol 1.0 μg/ml, PWM +, 0 to 6 days
[12] = avarol 1.0 μg/ml, PWM +, 3 to 6 days
[13] = avarol 1.0 μg/ml, PWM -, 0 to 6 days
[14] = avarol 1.0 μg/ml, PWM -, 3 to 6 days
[15] = avarol 3.0 μg/ml, PWM +, 0 to 6 days
[16] = avarol 3.0 μg/ml, PWM +, 3 to 6 days
[17] = avarol 3.0 μg/ml, PWM -, 0 to 6 days
[18] = avarol 3.0 μg/ml, PWM -, 3 to 6 days

CC1=CCC[C@H]2[C@](C)(Cc3cc(O)ccc3O)[C@@H](C)CC[C@]12C [Avarol, 2-[(1R)-1,2,3,4,4a,7,8,8aα-octahydro-1β,2β,4aβ,5-tetramethyl-1-naphthylmethyl]-1,4-benzenediol]
IgM production, in words [1, 6]: significant increase
IgM synthesized [1, 7]: 20.4 ± 5.1 µg/mL
IgM synthesized [1, 8]: 24.7 ± 5.6 µg/mL
IgM synthesized [1, 9]: 14.7 ± 3.4 µg/mL
IgM synthesized [1, 10]: 14.2 ± 3.3 µg/mL
IgM synthesized [1, 11]: 23.5 ± 5.5 µg/mL
IgM synthesized [1, 12]: 25.6 ± 5.9 µg/mL
IgM synthesized [1, 13]: 15.6 ± 4.0 µg/mL
IgM synthesized [1, 14]: 15.9 ± 4.2 µg/mL
IgM synthesized [1, 15]: 10.5 ± 2.6 µg/mL
IgM synthesized [1, 16]: 11.7 ± 2.9 µg/mL
IgM synthesized [1, 17]: 8.1 ± 1.8 µg/mL
IgM synthesized [1, 18]: 8.4 ± 1.9 µg/mL
IgM production, in words ([1]; higher avarol concentrations): turned to normal values
Arthus reaction, in words ([2]; 30 mg/kg, 24 hours and 30 minutes before challenge, P>0.05): weak suppression of the reaction
Arthus reaction, in words ([2]; 3-30 mg/kg i.p., day -1 to +2, day +18 to +21, or immediately before challenge): no significant suppression of the Arthus reaction
Titer IgM (IgM titer; from 0 to +4 days, untreated 256): 256
Titer IgM (IgM titer; from -4 to 0 days, untreated 512): 512
IgG production, in words [3, 6]: significant increase
IgG synthesized [3, 7]: 6.7 ± 1.5 µg/mL
IgG synthesized [3, 8]: 7.9 ± 1.9 µg/mL
IgG synthesized [3, 9]: 2.1 ± 0.5 µg/mL
IgG synthesized [3, 10]: 2.0 ± 0.5 µg/mL
IgG synthesized [3, 11]: 7.0 ± 1.6 µg/mL
IgG synthesized [3, 12]: 8.5 ± 1.9 µg/mL
IgG synthesized [3, 13]: 2.3 ± 0.6 µg/mL
IgG synthesized [3, 14]: 2.2 ± 0.5 µg/mL
IgG synthesized [3, 15]: 3.9 ± 1.0 µg/mL
IgG synthesized [3, 16]: 4.9 ± 1.0 µg/mL
IgG synthesized [3, 17]: 1.2 ± 0.3 µg/mL
IgG synthesized [3, 18]: 1.3 ± 0.3 µg/mL
IgG production, in words ([3]; higher avarol concentrations): turned to normal values
metabolised at 22 h [4]: ≤ 15%
50% lethal dose (male NMRI mice; NMRI mice, previous experiments): 269.1 mg/kg
Acute toxicity LD10 (male NMRI mice; male NMRI mice, acute): 156.4 mg compound/kg
Subacute toxicity LD10 (male NMRI mice; male NMRI mice, subacute): 138.6 mg compound/kg
Subacute toxicity LD50 (male NMRI mice; male NMRI mice, subacute): 218.4 mg compound/kg
Plaque forming cells per 10^6 cells ([5]; from 0 to +4 days, untreated 2,782): 3,316
Plaque forming cells per 10^6 cells ([5]; from -4 to 0 days, untreated 2,259): 2,202
higher number of plaque forming cells/spleen ([5]; 30 mg/kg, day 0 to day +4): 28%
increase of plaque forming cells/spleen ([5]; 30 mg/kg, day -4 to day 0): 21%
Titer IgG (IgG titer; from 0 to +4 days): 2
Titer IgG (IgG titer; from -4 to 0 days): 4
Expression of p24 (in %) (HTLV-III p24; 0.1 μg/ml): 28%
Expression of p24 (in %) (HTLV-III p24; 1 μg/ml): 14%
Expression of p24 (in %) (HTLV-III p24; 5 μg/ml): 14%
expression of HTLV-III protein p24, in words (HTLV-III p24; H9-HTLV-III cells): significant reduction
